“Also recorded” adds a separate entry of the source. Read-outs that look alike come from different tables or passages of the source.
Tests used:
[1] = tested on: retinal pigment epithelium (RPE); parameters: method as in PMID 22090477, PMID 25361751; details: cited from earlier work
[2] = molecular target: T1, CatD (Homo sapiens, UniProt P07339); test: CatD purified enzyme fluorescence polarization assay; format: biochemical; parameters: final maturation into a non-covalently associated heavy chain and light chain; purchased Sigma C8696; host or cells: human liver; details: for IC50: purified human enzyme, fluorescence polarization, substrate-based
Protocol: (§1) Purified enzyme inhibition of BACE1, BACE2, CatD and CatE was determined using fluorescence polarization (FP) assays. Briefly, purified enzymes were treated with test compounds (1% DMSO, 37 °C) in the presence of synthetic peptide substrates (150 nM) in 30 μl total volume of NaOAc buffer (100 mM, pH 4.5, 0.0001% Tween-20) in a 384-well plate. After incubation, reactions were stopped and substrate captured by the addition of 1.5 μM streptavidin, and FP measured with an EnVision plate reader (PerkinElmer, excitation 485 nm, emission 530 nm). […] BACE2 activity was assessed with 0.5 nM recombinant BACE2 (R&D Systems 4097-AS) and the same synthetic substrate used for BACE1, with a 1 h incubation time. […] CatE activity was assessed with 1.0 nM recombinant CatE (Creative BioMart CTSE-255H) and the same synthetic substrate used for CatD, with a 1.5 h incubation time.
Target sequence in this assay (P07339 65-162 limits assumed): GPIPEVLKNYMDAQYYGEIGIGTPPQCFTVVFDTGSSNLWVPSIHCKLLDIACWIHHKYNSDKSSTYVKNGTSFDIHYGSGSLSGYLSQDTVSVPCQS
Target sequence in this assay (P07339 169-412 limits assumed): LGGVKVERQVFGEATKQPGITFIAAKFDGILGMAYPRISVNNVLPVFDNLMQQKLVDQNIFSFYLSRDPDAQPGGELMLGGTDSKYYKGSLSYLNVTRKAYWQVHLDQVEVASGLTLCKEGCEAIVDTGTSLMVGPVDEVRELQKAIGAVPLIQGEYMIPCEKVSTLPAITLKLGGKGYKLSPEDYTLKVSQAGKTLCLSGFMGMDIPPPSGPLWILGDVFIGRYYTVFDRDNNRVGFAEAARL

[3] = tested on: retinal pigment epithelium (RPE); test: Exploratory toxicology, ocular toxicity by retinal histology in rats; format: in vivo; details: for Female ocular toxicity incidence (positive or negative animals / total evaluated) / Female ocular toxicity outcome / Male ocular toxicity incidence (positive or negative animals / total evaluated) / Male ocular toxicity outcome: rat; for Ocular toxicity: 29-day studies with high daily doses
Protocol: (§2) Wistar Han rats (obtained from Charles River, 125–300 g, 6–9 weeks old at study start, see Supplementary Table 7 for number of males and females) received daily oral dosing of test compounds or vehicle at the indicated concentrations for 7–29 days as indicated. The doses were prepared in a solution of 0.5% methylcellulose and 0.2% polysorbate 80, or 0.5% methylcellulose and hydroxypropyl methylcellulose acetate succinate (high fine grade) and delivered in a volume of 10 ml kg^−1 per day. Blood samples for bioanalytical analysis were collected in K2EDTA tubes via jugular vessel. Plasma was isolated after centrifugation and stored at −20 °C prior to analysis. Animals were given an additional dose the day after the end of the study (days 8, 15 or 30 for 7, 14 and 29 day studies, respectively) then killed by gas anaesthesia (isoflurane) followed by exsanguination ∼3 h after this final dose.

[4] = molecular target: T2, BACE1 (Homo sapiens, UniProt P56817); test: BACE1 biochemical cellular assay (sAPPβ ELISA in H4 cells overexpressing APP695); format: cell-based; parameters: endogenous in cells; host or cells: H4 human neuroglioma cells overexpressing human APP695; details: for BACE1 potency increase in live cells: BACE1 enzyme IC50 versus BACE1 cellular IC50; for IC50: sAPPβ ELISA, H4 neuroglioma cells with human wild-type APP
Protocol: Cellular inhibition of BACE1 was determined by measuring sAPPβ, the primary cleavage product of BACE-1, in H4 human neuroglioma cells overexpressing the wild-type human APP695. […] The colorimetric reaction was read by an EnVision plate reader (PerkinElmer).
Target sequence in this assay (P56817 46-501): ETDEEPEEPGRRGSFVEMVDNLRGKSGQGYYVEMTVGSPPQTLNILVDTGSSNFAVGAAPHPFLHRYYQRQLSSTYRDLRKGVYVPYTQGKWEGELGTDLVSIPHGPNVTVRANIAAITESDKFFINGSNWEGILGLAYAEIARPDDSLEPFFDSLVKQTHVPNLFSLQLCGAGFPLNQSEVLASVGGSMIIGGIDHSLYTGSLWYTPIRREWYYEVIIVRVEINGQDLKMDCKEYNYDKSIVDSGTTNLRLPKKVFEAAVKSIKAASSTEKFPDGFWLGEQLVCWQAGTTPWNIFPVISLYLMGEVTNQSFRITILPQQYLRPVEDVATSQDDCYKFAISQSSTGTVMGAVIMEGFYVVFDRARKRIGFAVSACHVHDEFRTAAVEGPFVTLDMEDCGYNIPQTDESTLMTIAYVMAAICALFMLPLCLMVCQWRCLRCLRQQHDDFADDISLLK

[5] = tested on: CatD; details: read-out: IC50 against purified CatD in vitro; cited from earlier work
[6] = molecular target: T1, CatD; test: CatD cellular assay (competition of PF-7802 photolabelling in live ARPE-19 cells); format: cell-based; parameters: host or cells: ARPE-19; details: for CatD potency increase in live cells: CatD enzyme IC50 versus CatD cellular IC50; for IC50: live ARPE-19 cells, PF-7802 photoprobe 100 nM, 30 min
Protocol: ARPE-19 cells were plated at a density of 1.2 × 10^6 cells per well in six-well dishes 12–24 h before probe labelling. Culture media was removed completely and replaced with 1 ml of the appropriate serum-free media (no supplements) per well. Cells were then pretreated with test compounds at the indicated concentrations for 30 min (0.5% DMSO, 37 °C, 5% CO2). […] Ultraviolet irradiation was performed without culture plate lids for efficient irradiation, and samples were slowly rotated to prevent evaporation. After ultraviolet irradiation, cells were washed twice with Dulbecco's phosphate-buffered saline (DPBS), scraped into DPBS, centrifuged and stored as pellets at −80 °C.
Cells were lysed with sonication on ice in 70 μl DPBS and protein concentrations were determined using a BCA assay (Pierce). Total protein concentrations were then normalized to 1 mg ml^−1 in 50 μl total volume before addition of 5.5 μl click chemistry mix (1 : 3 : 1 : 0.5 volume of 50 mM CuSO4 (Sigma) in H2O : 1.7 mM TBTA (Sigma) in 4:1 t-BuOH:DMSO : 50 mM TCEP (Hampton Research) in dPBS : 10 mM TAMRA-azide (Lumiprobe) in DMSO - mixed immediately before use. Reagent solutions can be premade and stored at 4 °C except for TCEP, which should be made immediately before use). […] All fluorescence gels are presented in greyscale.
Target sequence in this assay (P07339 169-412 limits assumed): as the sequence (P07339 169-412 limits assumed) above
Target sequence in this assay (P07339 65-162 limits assumed): as the sequence (P07339 65-162 limits assumed) above

[7] = Plasma exposure (average unbound plasma concentration) in rats; format: in vivo, rat; details: Wistar Han, oral, rat, 29 days, average unbound plasma concentration, read-out: Avg Cp,u parent
Protocol: as §2
Plasma samples were analysed after protein precipitation by treating 20 μl of sample matrix with 200 μl of acetonitrile containing internal standard. All samples were centrifuged at 3,000 r.p.m. for 5 min. Then 100 μl of supernatant was transferred to a clean plate and evaporated to dryness under N2. Samples were reconstituted in 200 μl of 80:20 (v:v) acetonitrile:water. Samples were analysed on Waters Acquity UPLC connected to AB Sciex API5500 QTrap MS/MS.
Plasma protein binding was determined in the Rapid Equilibrium Device (RED, Thermo Scientific). Frozen plasma was warmed to 37 °C and adjusted to pH 7.4. The plasma was spiked with compound to a final concentration of 2 μM. Aliquots of spiked plasma were added to the donor (red) side, followed by addition of buffer to the receiver (white) side. The RED device was covered with a gas-permeable membrane and agitated within a humidified CO2 incubator (5% CO2, 75% relative humidity). Plasma (15 μl) and buffer (45 μl) were sampled from each insert and were matrix-matched with appropriate blank matrix (plasma with 45 μl buffer and buffer with 15 μl of plasma). Samples were protein-precipitated with acetonitrile containing internal standard, and the resulting supernatant was analysed by LC-MS/MS.

[8] = pKa determination by multiplexed capillary electrophoresis; format: physicochemical; details: aqueous buffers
Protocol: All pKa values were determined at Analiza, Inc. by multiplexed capillary electrophoresis (mCE) using 96-capillary array electrophoresis instrument to measure the effective mobility (migration time of the compound in relation to neutral marker, DMSO) with ultraviolet detection. The pKa values were obtained from the ionization curves by plotting the compound effective mobility (24 points across pH range 1.7–11.2) versus pH. All pKa results were determined using aqueous buffers with method average absolute error 0.12.

[9] = molecular target: T2, BACE1; test: BACE1 purified enzyme fluorescence polarization assay; format: biochemical; parameters: His (C); made in house; host or cells: CHO-K1
Protocol: as §1
Target sequence in this assay (P56817 46-457): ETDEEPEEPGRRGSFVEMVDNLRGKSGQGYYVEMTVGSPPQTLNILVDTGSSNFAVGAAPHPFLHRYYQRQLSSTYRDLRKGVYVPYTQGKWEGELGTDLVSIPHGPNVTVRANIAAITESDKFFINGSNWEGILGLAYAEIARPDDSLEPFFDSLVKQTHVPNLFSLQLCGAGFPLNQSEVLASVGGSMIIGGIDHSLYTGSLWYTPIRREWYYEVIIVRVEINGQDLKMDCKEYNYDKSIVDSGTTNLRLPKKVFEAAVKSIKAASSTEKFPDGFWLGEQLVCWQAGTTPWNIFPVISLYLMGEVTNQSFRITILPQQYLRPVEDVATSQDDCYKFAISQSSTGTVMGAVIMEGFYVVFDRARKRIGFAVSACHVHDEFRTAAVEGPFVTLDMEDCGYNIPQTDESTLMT

[10] = molecular target: T3, BACE2 (Homo sapiens, UniProt Q9Y5Z0); test: BACE2 purified enzyme fluorescence polarization assay; format: biochemical; details: purified human enzyme, fluorescence polarization
T3 construct: purchased R&D Systems 4097-AS
T3 sequence (Q9Y5Z0 63-518): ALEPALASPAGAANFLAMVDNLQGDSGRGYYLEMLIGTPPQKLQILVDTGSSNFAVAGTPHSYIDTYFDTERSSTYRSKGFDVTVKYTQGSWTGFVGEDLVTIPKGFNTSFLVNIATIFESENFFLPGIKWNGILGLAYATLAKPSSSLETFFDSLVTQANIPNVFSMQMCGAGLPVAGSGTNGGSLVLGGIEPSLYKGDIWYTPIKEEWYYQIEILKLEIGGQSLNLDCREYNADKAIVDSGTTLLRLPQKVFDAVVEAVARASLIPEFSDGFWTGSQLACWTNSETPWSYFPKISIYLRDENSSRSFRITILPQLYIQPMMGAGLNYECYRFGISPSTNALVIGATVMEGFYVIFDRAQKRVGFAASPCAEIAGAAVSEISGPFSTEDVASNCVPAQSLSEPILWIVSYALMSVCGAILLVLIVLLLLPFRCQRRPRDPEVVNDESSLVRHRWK
Protocol: as §1

[11] = molecular target: CatD in ARPE-19 cells (Homo sapiens, UniProt P07339); test: Live cell lysosome neutralization and PF-7802 labelling of CatD; details: ammonium chloride 10 mM, 2 h or bafilomycin A1 400 nM, 4 h before labelling
[12] = 29 days, 100 mg kg-1 once daily
[13] = purified human enzyme, fluorescence polarization, peptide substrate

Sequence of CatD in ARPE-19 cells (P07339 169-412 limits assumed): as the sequence (P07339 169-412 limits assumed) above
Sequence of CatD in ARPE-19 cells (P07339 65-162 limits assumed): as the sequence (P07339 65-162 limits assumed) above

IC50 [2] [nM]	IC50 [6] [nM]	IC50 [10] [nM]	pKa [8]	SMILES	BACE1 potency increase in live cells [4] [x]	CatD potency increase in live cells [6] [x]	IC50 [9, 13] [nM]	IC50 [4] [nM]	further results
–	–	–	–	CC1(C#Cc2cnc3c(c2)[C@]2(COC(N)=N2)c2cc(-c4cccnc4F)ccc2O3)COC1 [AMG-8718, (S)-7-(2-Fluoropyridin-3-yl)-3-((3-methyloxetan-3-yl)ethynyl)-5′H-spiro[chromeno[2,3-b]pyridine-5,4′-oxazol]-2′-amine]	–	–	–	–	Ocular toxicity in preclinical animal models [1]: ocular toxicity in preclinical animal models
–	–	–	–	NC1=N[C@@]2(c3cc(NC(=O)c4ccc(F)cn4)ccc3F)COC[C@H]2CS1 [LY2886721, reference compound]	13	> 15	–	–	Inhibition of purified CatD ([2]; purified CatD biochemical substrate assay): inactive; Female ocular toxicity incidence (positive or negative animals / total evaluated) [3, 12]: 4/4; Female ocular toxicity outcome [3, 12]: Neg (negative (neg) if there was no ocular abnormality observed); Male ocular toxicity incidence (positive or negative animals / total evaluated) [3, 12]: 4/4; Male ocular toxicity outcome [3, 12]: Neg (negative (neg) if there was no ocular abnormality observed); Retinal finding by fluorescence microscopy ([3]; rats, 100 mg kg-1 daily, 29 days): no ocular abnormality was observed; Ocular toxicity ([3]; rats): negative for ocular toxicity; also recorded: no ocular findings; also recorded: no ocular toxicity; IC50 [5]: > 100000 nM; CatD potency difference between cell-free enzyme and cellular assays [6]: > 15 fold; concentration at 29 days ([7]; 100 mg kg-1 once daily): 3480 nM; pKa ([8]; read-out: pKa): 7.6
> 20000	> 20000	> 20000	–	NC1=N[C@@]2(c3ccc(F)cc3F)CO[C@@H](C(=O)O)C[C@H]2[C@@H](CF)S1 [PF-2696]	–	–	–	–	IC50 ([9]; purified enzyme): > 20000 nM
16000	940	1600	7.0	NC1=N[C@@]2(c3ccc(F)cc3F)CO[C@@H](c3cc(CO)no3)C[C@H]2[C@@H](CF)S1 [PF-3763]	4.8	17	380	80	–
37000	580	670	6.9	NC1=N[C@@]2(c3ccc(F)cc3F)CO[C@@H](c3nc(CO)co3)C[C@H]2[C@@H](CF)S1 [PF-7152]	7.2	64	460	64	–
–	–	–	–	Cl.N [ammonium chloride]	–	–	–	–	PF-7802 labelling of CatD after lysosome neutralization [11]: significantly decreased labelling of CatD
–	–	–	–	CO/C1=C\C(C)=C\[C@@H](C)[C@@H](O)[C@@H](C)C/C(C)=C/C=C/[C@H](OC)[C@@H]([C@@H](C)[C@@H](O)[C@H](C)[C@@]2(O)C[C@@H](O)[C@H](C)[C@@H](C(C)C)O2)OC1=O [bafilomycin A1]	–	–	–	–	PF-7802 labelling of CatD after lysosome neutralization [11]: significantly decreased labelling of CatD

SMILES	IC50 [2] [nM]	IC50 [6] [nM]	IC50 [10] [nM]	pKa [8]	BACE1 potency increase in live cells [4] [x]	CatD potency increase in live cells [6] [x]	IC50 [9, 13] [nM]	IC50 [4] [nM]	further results
C[C@H]1SC(N)=N[C@@]2(c3ccc(F)cc3F)CO[C@@H](c3cc(CO)no3)C[C@@H]12 [PF-9159]	17000	110	–	7.8	12	150	210	17	–
COc1cnc(C(=O)Nc2ccc(F)c([C@]3(C)CS(=O)(=O)N(C)C(N)=N3)c2)cn1 [SG1, reference compound]	> 100000	2900	17	–	10	> 34	6	0.59	Female ocular toxicity incidence (positive or negative animals / total evaluated) ([3]; 29 days, 60 mg kg-1 once daily): 4/4; Female ocular toxicity outcome ([3]; 29 days, 60 mg kg-1 once daily): Neg (negative (neg) if there was no ocular abnormality observed); Male ocular toxicity incidence (positive or negative animals / total evaluated) ([3]; 29 days, 60 mg kg-1 once daily): 4/4; Male ocular toxicity outcome ([3]; 29 days, 60 mg kg-1 once daily): Neg (negative (neg) if there was no ocular abnormality observed); Ocular toxicity ([3]; rats): negative for ocular toxicity; also recorded: no ocular findings; also recorded: no ocular toxicity; BACE1 selectivity over CatD in cells ([6]; cellular inhibition of BACE1 cleavage of APP versus inhibition of CatD labelling by PF-7802): > 2,000 fold; concentration at 29 days ([7]; 60 mg kg-1 once daily): 1560 nM; pKa ([8]; read-out: pKa): 6.9

Source: publication PMC5062570 (Nature Communications, 2016)
